# Reference: patent US20250195525A1, “ANGIOTENSIN II RECEPTOR ANTAGONIST FOR THE PREVENTION OF SYSTEMIC DISEASES IN CATS” (Boehringer Ingelheim Vetmedica GmbH, priority 2023, published 2025)
# Legend:
# [1] = human patients, high dose of 160 mg daily (80 mg twice daily); cited from earlier work
# [2] = in vivo
# [3] = cat, in vivo
# [4] = tested on: angiotensin II receptor 1; test: Angiotensin II induced blood pressure response in laboratory cats; format: in vivo, cat
# From the text: Moreover, a study in laboratory cats was established to investigate the Angiotensin II induced increase in diastolic blood pressure prior to and after administration of telmisartan. This test was established to estimate the potency as well as the duration of action of sartans, in particular of telmisartan in cats.
# [5] = tested on: cats with CKD; test: placebo controlled field trial in client-owned cats with CKD: progression of SBP; format: in vivo, cat; conditions: 1 mg/kg body weight
# Procedure: This prospective, placebo controlled, randomized, double-blind, multicenter, multinational field study enrolled client-owned cats that were presented in the normal course of veterinary practice to evaluate safety and efficacy of telmisartan on progression-free survival time in cats with CKD compared to placebo. In this study 545 cats were randomly assigned to telmisartan (1 mg/kg body weight) or placebo in a ratio of 1:1.
# At least two weeks before the start of the field study, creatinine value and Urine Specific Gravity (USG) were determined. Only cats were included in the study which were diagnosed with CKD, meaning a creatinine value ≥1.9 mg/dl (168 μmol/L) and <5.0 mg/dL (440 μmol/L) and a USG of <1.035.
# At all visit timepoints, SBP was recorded prior to performing any other procedures scheduled for the animal during the visit. • 5 SBP readings were taken following a ≥10 minute acclimation period. • The highest and the lowest SBP were excluded and a mean of the remaining 3 SBPs was used to obtain the mean SBP for that visit. Visits were scheduled on Day 0, 30, 90, 180, 270, 365, 450, 540, 630, 730, 810, 900, 990, 1080, 1170, 1260, 1350, 1440 (each ±7) and, if applicable, additional visits every 3 months (+7 days).
compound,measurement,setting,value
"CCCc1nc2c(C)cc(-c3nc4ccccc4n3C)cc2n1Cc1ccc(-c2ccccc2C(=O)O)cc1 [Telmisartan, 4′-[2-n-propyl-4-methyl-6-(1-methylbenzimidazol-2-yl)-benzimidazol-1-ylmethyl]-biphenyl-2-carboxylic acid]",plasma level (Cmax±SD),[1],about 2800±2400 ng/ml
same,AUC,[2]; iv,385 ng·h/mL
same,AUC,[2]; po,150 ng·h/mL
same,"mean V/f oral (second mention, after the intravenous values)",[3],8.8 L/kg
same,mean V/f oral,[3]; po,20.4 L/kg
same,inhibition of the blood pressure response,"[4]; cats, doses of less than 0.05 mg per kg body weight, majority of the tested cats",about 75%
same,diastolic blood pressure responses to increasing intravenous doses of Angiotensin II,"[4]; laboratory cats, approximately 24 hours after the last oral dosing, target dose compared with Placebo",significantly reduced
same,"Time to event for progression of SBP (up to 160 mmHg), median no. of days",[5],446.0 days
same,delay in reaching the endpoint of SBP of 160 mmHg versus placebo (median number of days),[5]; compared to placebo,84.5 days
same,Mean probability for progression of SBP,[5]; progression = SBP ≥160 mmHg and increase of >20 mmHg compared to baseline,0.035
